Test results from PubChem BioAssay (NCI).
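In this assay, cells in 96-well plates receive the compound at five concentrations for 48 hours. Endpoints are linearly interpolated between the surrounding concentrations. The concentration for 50% growth inhibition is given as GI50. TGI denotes the concentration required for complete inhibition of growth.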

Tests used:
Experiment in all cases: NCI anticancer screen, dose series, 48 h
NCI-H226 lung = test system: NCI-H226 lung
M14 melanoma = test system: M14 melanoma
NCI-H23 lung = test system: NCI-H23 lung
HL-60(TB) leukemia = test system: HL-60(TB) leukemia
IGROV1 ovarian = test system: IGROV1 ovarian
SF-539 CNS = test system: SF-539 CNS
MOLT-4 leukemia = test system: MOLT-4 leukemia
K-562 leukemia = test system: K-562 leukemia
HCT-15 colon = test system: HCT-15 colon
LOX IMVI melanoma = test system: LOX IMVI melanoma

Compound	GI50 (NCI-H226 lung) [µM]	TGI (NCI-H226 lung) [µM]	GI50 (M14 melanoma) [µM]	TGI (M14 melanoma) [µM]	GI50 (NCI-H23 lung) [µM]	TGI (NCI-H23 lung) [µM]	GI50 (HL-60(TB) leukemia) [µM]	TGI (HL-60(TB) leukemia) [µM]	GI50 (IGROV1 ovarian) [µM]	TGI (IGROV1 ovarian) [µM]	GI50 (SF-539 CNS) [µM]	TGI (SF-539 CNS) [µM]	GI50 (MOLT-4 leukemia) [µM]	GI50 (K-562 leukemia) [µM]	TGI (K-562 leukemia) [µM]	GI50 (HCT-15 colon) [µM]	TGI (HCT-15 colon) [µM]	GI50 (LOX IMVI melanoma) [µM]	TGI (LOX IMVI melanoma) [µM]	TGI (MOLT-4 leukemia) [µM]
O=C(Nc1ccc(Br)cc1)Nc1nn(C(=O)Nc2ccc(Br)cc2)c2ccccc12	27.7	> 100	> 70.8	> 100	29.1	> 100	12	> 32.2	52.6	> 100	29.3	> 100	2.49	7.64	> 35.6	> 74.2	> 100	64.4	> 100	–
NC(=O)c1csc(C2CCC(CO)O2)n1 (centres undefined)	–	> 100	–	> 100	–	> 100	–	> 100	–	> 100	–	> 100	–	–	> 100	–	> 100	–	> 100	> 100
S=P(N1CCCC1)(N1CC1)N1CC1	–	> 100	–	> 100	–	> 100	–	> 100	–	> 100	–	> 100	–	–	> 100	–	> 100	–	> 100	> 100
CNCCNc1nc2ccccc2c2c(=O)c3cc(F)ccc3sc12	1.8	3.76	1.64	3.07	1.8	3.65	1.89	3.66	1.75	3.34	1.71	3.13	1.72	1.64	4.35	1.65	3.26	1.57	2.98	3.5
CN1c2ccccc2S(=O)(=O)n2c(CCc3ccccc3)nnc21	–	> 100	–	> 100	–	> 100	–	> 100	–	> 100	–	> 100	–	–	> 100	–	> 100	–	> 100	> 100
CC[C@]1(O)C[C@@H]2CN(CCc3c([nH]c4ccccc34)[C@@](C(=O)OC)(c3cc4c(cc3OC)N(C)[C@H]3[C@@](O)(C(N)=O)[C@H](O)[C@]5(CC)[C@@H]6C[C@@H]6CN6CC[C@]43[C@@H]65)C2)C1	0.0382	> 23.7	0.00605	0.956	< 0.00333	> 33.3	< 0.00333	0.013	0.0172	> 33.3	< 0.00333	0.0143	< 0.00333	< 0.00333	> 33.3	0.148	> 21.4	< 0.00333	> 33.3	> 33.3
Cc1cccc(N=C2NC(=O)C(CC(=O)Nc3ccc(C)cc3C)S2)c1 (centres undefined)	–	> 100	–	> 100	–	> 100	–	> 100	–	> 100	–	> 100	–	–	> 100	–	> 100	–	> 100	> 100
COc1ccc(/C=C\c2cc(OC)c(OC)c(OC)c2)c(NS(=O)(=O)c2ccc(Cl)cc2)c1O	24.9	90.4	0.0913	56.3	0.288	42.4	0.0331	0.265	0.379	49.5	0.0371	10.5	0.315	0.0323	20.2	0.053	> 100	0.153	15.5	83.3
